The values below come from patent US5856347A, “Antibacterial preparation or bactericide comprising 2-aminothiazole derivative and/or salt thereof” (Hisamitsu Pharmaceutical Co., Inc., priority 1994, dated 1999).

Assay type in all cases: cell-based
The test system of assay [1] is Staphylococcus aureus tolerant to GM. Briefly: Antibacterial activity against GM-tolerant Staphylococcus aureus. Particulars: S. aureus tolerant to GM. The protocol:
(§1) Antibacterial Activity Against GM-Sensitive and Tolerant Strains of Staphylococcus aureus and Staphylococcus epidermidis
(§2) One platinum loop of each test strain on a slant culture medium was inoculated into 10 ml of a growing medium (Trypto-Soya Broth manufactured by Nussui Pharmaceutical Co., Ltd.) and cultured at 37° C. for 18 to 20 hr. The thus obtained cultures were each diluted to obtain suspensions of about 10^7 cells/ml which were later used as a bacteria suspension for inoculation.
(§3) About 10 mg of compound No. 9 were weighed out and dissolved in such an amount of DMSO as to obtain a solution having a concentration of 10 mg/ml. Separately, about 400 mg of Gentamicin sulfate (GM) were weighed out and dissolved in distilled water to obtain a solution having a concentration of 409.6 mg/ml.
(§4) Each of the sample solutions thus prepared was added to a liquid medium (broth for determination of sensitivity, manufactured by Nussui Pharmaceutical Co., Ltd.) to obtain a liquid medium containing compound No. 9 in a concentration of 128 μg/ml or GM in a concentration of 4096 μg/ml. Further, each sample-containing medium so obtained was subjected to stepwise two-fold dilutions on a microplate with wells each containing […] of the above medium (compound No. 9: 128 to 1 μg/ml, GM: 4096 to 1 μg/ml). […]

Assay [2] concerns Staphylococcus epidermidis tolerant to GM. The experiment in a line: Antibacterial activity against GM-tolerant Staphylococcus epidermidis. Particulars: S. epidermidis tolerant to GM. The protocol: as §1, §2, §3, §4
Assay [3] has as its system Staphylococcus epidermidis. Briefly: Acquisition of tolerance in Staphylococcus epidermidis (serial passages). The protocol:
(§5) Acquisition of Tolerance in Staphylococcus aureus and Staphylococcus epidermidis
(§6) One platinum loop of each test strain on a slant culture medium was inoculated into 10 ml of a growing medium (Trypto-Soya Broth manufactured by Nussui Pharmaceutical Co., Ltd.) and cultured at 37° C. for 18 to 20 hr. The thus obtained cultures were each diluted to obtain suspensions of about 10^8 cells/ml which were later used as a bacteria suspension for inoculation.
(§7) About 10 mg of compound No. 9 were weighed out and dissolved in such an amount of DMSO as to obtain a solution having a concentration of 12.8 mg/ml, after which the solution so obtained was subjected to stepwise two-fold dilutions with DMSO (12.8 to 0.1 mg/ml).
(§8) Separately, about 400 mg of Gentamicin sulfate (GM) were weighed and dissolved in distilled water to obtain a solution having a concentration of 409.6 mg/ml, after which the solution so obtained was subjected to stepwise two-fold dilutions with distilled water to prepare control medicinal solutions for comparison (409.6 to 0.1 mg/ml).
(§9) Each of the sample solutions thus obtained by the stepwise dilutions was added to a liquid medium (Trypto-Soya Broth manufactured by Nussui Pharmaceutical Co., Ltd.) in an amount of 0.01 volume thereof.
(§10) Each of the bacteria suspensions for inoculation was added to each of the sample-containing liquid media so prepared in an amount of 0.01. volume (about 10^6 cells/ml) of the liquid medium, and the bacteria were cultured at 37° C. for 2 to 4 days. Thereafter, the growth of bacteria was observed.

In another assay the test system is Staphylococcus aureus. Briefly: Acquisition of tolerance in Staphylococcus aureus (serial passages). As for the experimental part: as §5, §6, §7, §8, §9, §10
For assay [4], the system named is Staphylococcus aureus sensitive to GM. Briefly: Antibacterial activity against GM-sensitive Staphylococcus aureus. The settings on record: S. aureus sensitive to GM, 37° C., 4 days. As for the experimental part:
as §1, §2, §3, §4

Assay [5] has as its system Propionibacterium acnes: Clinical isolated No. 3. The experiment in a line: Bactericidal activity against Propionibacterium acnes: Clinical isolated No. 3 (MCC). The settings on record: P. acnes clinical isolated No. 3, 37° C., 18 to 20 hr, bactericidal (Table 9). As for the experimental part:
(§11) Bactericidal Activity Against Gram-Positive Bacteria
(§12) One platinum loop of each test strain on a slant culture medium was inoculated into 10 ml of each growing medium (for aerobic bacteria: Trypto-Soya Broth manufactured by Nussui Pharmaceutical Co., Ltd., for anaerobic bacteria: GAM Broth manufactured by Nussui Pharmaceutical Co., Ltd.) and cultured at 37° C. for 18 to 20 hr. The thus obtained cultures were each diluted to obtain suspensions of about 10^7 cells/ml which were later used as a bacteria suspension for inoculation.
(§13) About 10 mg of each sample were weighed out and dissolved in such an amount of DMSO (dimethylsulfoxide) as to obtain solutions having a concentration of 10 mg/ml.
(§14) The sample solutions thus prepared were each added to each liquid medium (for aerobic bacteria: broth for determination of sensitivity, manufactured by Nussui Pharmaceutical Co., Ltd., for anaerobic bacteria: GAM Broth manufactured by Nussui Pharmaceutical Co., Ltd.) to obtain sample-containing medium solutions having a concentration of 128 μg/ml. […]
(§15) 5 μl of each bacteria suspension for inoculation were placed in each of the sample-containing liquid media so prepared, and the bacteria were cultured at 37° C. for 18 to 20 hr. […] The minimum concentrations of the samples, which have been judged to kill bacteria, are expressed as MCC (Minimum Cidal Concentration) in μg/ml. […]

Assay [6] concerns Staphylococcus aureus: IFO 13276. The experiment in a line: Bactericidal activity against Staphylococcus aureus: IFO 13276 (MCC). Particulars: S. aureus IFO 13276, 37° C., 18 to 20 hr, bactericidal (Table 8). As for the experimental part:
as §11, §12, §13, §14, §15

Assay [7] concerns Bacillus subtilis: IFO 3134. Briefly: Antibacterial activity against Bacillus subtilis: IFO 3134 (MIC). Particulars: Bacillus subtilis IFO 3134, 37° C., 18 to 20 hr. As for the experimental part:
(§16) Antibacterial Activity Against Gram-positive Bacteria
(§17) One platinum loop (oese) of a test strain on a slant culture medium was inoculated into 10 ml of each growing medium (for aerobic bacteria: Trypto-Soya Broth manufactured by Nussui Pharmaceutical Co., Ltd., for anaerobic bacteria: GAM Broth manufactured by Nussui Pharmaceutical Co., Ltd.) and cultured at. 37° C. for 18 to 20 hr. The cultures thus obtained were each diluted to obtain suspensions of about 10^7 cells/ml which were later used as a bacteria suspension for inoculation.
(§18) About 10 mg of each sample were weighed out and dissolved in such an amount of DMSO (dimethylsulfoxide) as to obtain sample solutions having a concentration of 10 mg/ml.
(§19) The sample solutions thus prepared were each added to each liquid medium (for aerobic bacteria: broth for determination of sensitivity, manufactured by Nussui Pharmaceutical Co., Ltd., for anaerobic bacteria: GAM Broth manufactured by Nussui Pharmaceutical Co., Ltd.) to obtain sample-containing medium solutions having a concentration of 128 μg/ml. Further, the thus obtained solutions were each subjected to progressive or stepwise two-fold dilutions on a microplate with wells each containing […] of the above medium (until various concentrations in a range from 128 down to 0.063 μg/ml were obtained). […]

Assay [8] deals with Streptococcus pyogenes: IID 698. Briefly: Antibacterial activity against Streptococcus pyogenes: IID 698 (MIC). Particulars: Streptococcus pyogenes IID 698, 37° C., 18 to 20 hr. As for the experimental part: as §16, §17, §18, §19
Assay [9] concerns Staphylococcus epidermidis sensitive to GM. Briefly: Antibacterial activity against GM-sensitive Staphylococcus epidermidis. The settings on record: S. epidermidis sensitive to GM, 37° C., 4 days. The protocol:
as §1, §2, §3, §4

For assay [10], the system named is Staphylococcus epidermidis: IFO 12993. The experiment in a line: Bactericidal activity against Staphylococcus epidermidis: IFO 12993 (MCC). The settings on record: S. epidermidis IFO 12993, 37° C., 18 to 20 hr, bactericidal (Table 9). The protocol:
as §11, §12, §13, §14, §15

For assay [11] the test system is unchanged. The experiment in a line: Antibacterial activity against Staphylococcus epidermidis: IFO 12993 (MIC). Particulars: Staphylococcus epidermidis IFO 12993, 37° C., 18 to 20 hr. As for the experimental part: as §16, §17, §18, §19
The test system of assay [12] is Escherichia coli: IFO 3972. The experiment in a line: Antibacterial activity against Gram-negative bacteria, Escherichia coli: IFO 3972 (MIC). The protocol:
Antibacterial Activity Against Gram-Negative Bacteria The procedure was performed in the same manner as Experiment Example 1.

In assay [13] the test system is Streptococcus agalactiae: IID 1624. The experiment in a line: Antibacterial activity against Streptococcus agalactiae: IID 1624 (MIC). The settings on record: Streptococcus agalactiae IID 1624, 37° C., 18 to 20 hr. As for the experimental part: as §16, §17, §18, §19
The subject of assay [14] is Staphylococcus aureus: IFO 13276. The experiment in a line: Antibacterial activity against Staphylococcus aureus: IFO 13276 (MIC, liquid dilution). The settings on record: S. aureus IFO 13276, 37° C., 18 to 20 hr (Table 2). As for the experimental part: as §16, §17, §18, §19
Assay [15] relates to Propionibacterium acnes: Clinical isolated No. 3. The experiment in a line: Antibacterial activity against Propionibacterium acnes: Clinical isolated No. 3 (MIC). Particulars: Propionibacterium acnes clinical isolated No. 3, GAM Broth, 37° C., 18 to 20 hr. As for the experimental part:
as §16, §17, §18, §19

As for `COc1ccc(-c2nc(NS(=O)(=O)C(F)(F)F)sc2-c2ccccc2)cc1` [compound 9], the “antibacterial activity and bactericidal activity compared with GM-sensitive strains” value in assay [1] and in [2] was “equally powerful to those against the strains sensitive to Gentamicin sulfate (GM)” each time. Further, the values for the acquisition of tolerance result (in assay [3] (18 passages); with Staphylococcus aureus (10 passages)) were “did not induce the tolerance until 18 passages” and “did not induce bacterial tolerance until 10 passages”, respectively. Also, the “increase in MIC due to passages” value (in assay [3] (18 passages); in the assay on Staphylococcus aureus (10 passages)) was “neither of the strains caused a significant increase in MIC” in each case.
Gentamicin sulfate [GM]: the “MIC (Minimum Inhibitory Concentration)” value was found to be 2 µg/mL in [4]; 2048 µg/mL in assay [1] (37° C., 4 days); 0.25 µg/mL in assay [7]; 1024 µg/mL in [2] (37° C., 4 days); 2 µg/mL in [8]; 0.5 µg/mL in assay [9]. Further, the “MIC (Minimum Inhibitory Concentration)” value in assay [11] came out at 0.5 µg/mL; in [12], 2 µg/mL; in [13], 16 µg/mL; in assay [14] it was 2 µg/mL; in [15] it was 32 µg/mL. The “MCC (Minimum Cidal Concentration), column head prints MIC” value was 64 µg/mL in [5], 128 µg/mL in assay [6] and 64 µg/mL in [10]. Further, the acquisition of tolerance entry (in assay [3] (18 passages); with Staphylococcus aureus (10 passages)) was “highly induced the tolerance” each time. The MIC after passages result (in assay [3] (18 passages in medium containing GM); against Staphylococcus aureus (10 passages in medium containing GM)) was “about 1000 μg/ml” in each case.
